The values below come from patent US12485089B1, “Adhering lozenge with high amount of sparsely soluble active ingredient” (Quest Products, LLC, priority 2025, dated 2025).

The data set can be described thus: Time to complete dissolution of compressed tablets of bulking agents/compression binders in water. Type of data set: physicochemical. The conditions noted are these: 750 mg tablet, 12 mm diameter, pressed at 32 kN, 1.5 L water in 2 L beaker, room temperature (69° F.). From the text:
To compare the speed of dissolution of any ingredients acting as a binder and/or bulking agent to the speed of dissolution of isomalt, a tablet can be formed of each and the time of dissolution for each can be measured. As used herein, the term “rate of dissolution” when comparing one or more binder and bulking agent ingredients to isomalt refers to the following procedure. The tablets should have the same diameter, shape, and weight and should be prepared by pressing with the same compression force (e.g., 32 kN) using a tablet press. Two equal beakers (e.g., 2 L) each containing an equal amount of distilled water (e.g., 1.5 L) and each at the same room temperature (i.e., at 69° F.) and atmospheric pressure are prepared. One tablet containing isomalt (commercially available FCC or USP grade isomalt particles) is placed in one of the beakers of water. The other tablet formed of the test binder and/or bulking agent are placed in the other of the beakers of water. The two beakers are then visually observed to determine which of the tablets dissolves completely first.
To identify suitable bulking agents and compression binders that dissolve quickly enough to allow suitable release of the preferred amount of antacid particles having low solubility in saliva, tablets of equal diameter (12 mm) and a weight of 750 mg±4 mg were made with commercially available particles of the bulking agents and/or compression binders listed in the table below, each compressed using a tablet press by placing the ingredients in a die and pressing with an equal pressure of 32 kN±3 kN to form the tablets. The tablets were simultaneously placed in equal size beakers (2 L) each containing an equal amount of water (1.5 L±15 mL) at room temperature (69° F.) and the time to complete dissolution was measured for each tablet. The dissolution times are shown below.

With `OC[C@@H](O)[C@@H](O[C@H]1O[C@H](CO)[C@@H](O)[C@H](O)[C@H]1O)[C@H](O)[C@@H](O)CO` [Maltitol], the “Dissolution time” value came out at 29 min. For the molecule `OC[C@@H](O)[C@@H](O)[C@H](O)[C@H](O)CO` [Mannitol], the “Dissolution time” value amounted to 50 min. For `OC[C@@H](O)[C@@H](O)[C@H](O)[C@@H](O)CO` [Sorbitol] the value was 20 min; for Isomalt, 38 min.
